We go through 2 compounds from ChEMBL document CHEMBL1156421, “ApoA-I mimetic peptides with differing ability to inhibit atherosclerosis also exhibit differences in their interactions with membrane bilayers” (J Biol Chem, 2007).

A short description of data set [1]: Elimination half life in apoE deficient C57BL/6J mouse at 20 ug, ip. In kind it is ADME, organism-based. Conditions: in vivo.
Data set [2] can be described thus: Time to Cmax in apoE deficient C57BL/6J mouse at 20 ug, ip. It is filed as ADME, organism-based. Conditions: in vivo.
For data set [3], the system named is Mus musculus. Kind of data set: Antiinflammatory activity in apoE deficient C57BL/6J mouse assessed as inhibition of atherosclerosis lesion area at 20 ug/day, ip administered for 4 weeks measured after 6 weeks. It is filed as functional.
For data set [4], the system named is Mus musculus. As to the kind of experiment: Cmax in apoE deficient C57BL/6J mouse at 20 ug, ip. It is filed as ADME, organism-based. Details: dose 20 ug, route intraperitoneal. The settings on record: in vivo, at 20 µg.

A word on the half-life: it is how long it takes for the measured level to halve. Higher therefore signals slow decline. For orientation: Tmax means the time from dosing to the highest level.

`CC(C)C[C@H](NC(=O)[C@H](Cc1c[nH]c2ccccc12)NC(=O)[C@H](CC(=O)O)NC([14CH3])=O)C(=O)N[C@@H](CCCCN)C(=O)N[C@@H](C)C(=O)N[C@@H](Cc1ccccc1)C(=O)N[C@@H](Cc1ccc(O)cc1)C(=O)N[C@@H](CC(=O)O)C(=O)N[C@@H](CCCCN)C(=O)N[C@H](C(=O)N[C@@H](C)C(=O)N[C@@H](CCC(=O)O)C(=O)N[C@@H](CCCCN)C(=O)N[C@@H](Cc1ccccc1)C(=O)N[C@@H](CCCCN)C(=O)N[C@@H](CCC(=O)O)C(=O)N[C@@H](C)C(=O)N[C@@H](Cc1ccccc1)C(N)=O)C(C)C`: in data set [1], the half-life was 126 min. In addition, in data set [2], the Tmax turned out to be 28.8 min. Moreover, in data set [3], the Activity is 20400 um2. This compound also came in with a Cmax in data set [4] of 12.29%.

For `CC(C)C[C@H](NC(=O)[C@H](Cc1ccccc1)NC(=O)[C@H](CCC(=O)O)NC(=O)[C@H](CCCCN)NC(=O)[C@H](Cc1ccccc1)NC(=O)[C@H](C)NC(=O)[C@H](CCC(=O)O)NC(=O)[C@H](C)NC(=O)[C@H](Cc1ccccc1)NC(=O)[C@H](CCCCN)NC(=O)[C@H](CC(=O)O)NC(=O)[C@H](Cc1ccc(O)cc1)NC(=O)[C@@H](NC(=O)[C@H](C)NC(=O)[C@H](CCCCN)NC(=O)[C@H](Cc1c[nH]c2ccccc12)NC(=O)[C@H](CCCCN)NC(=O)[C@H](CC(=O)O)NC([14CH3])=O)C(C)C)C(N)=O`, in data set [1], the half-life was 32.4 min. Moreover, the Tmax in data set [2] worked out at 16.8 min. In addition, the Activity in data set [3] is reported as 15800 um2. Further, the Cmax in data set [4] is 5.52%.
